# Measured values: US9850216B2 (H. LEE MOFFITT CANCER CENTER AND RESEARCH INSTITUTE, INC., priority 2013, dated 2017)
# Where “and” joins values, the source holds several entries; their conditions need not be identical. Equal entries are not always repeated. Where two headings read alike, the source gives them in different places.
# What was measured:
# [1] = system: pY88-H4; test: Endogenous H4 Y88-phosphorylation in LNCaP cells; assay type: cell-based, human; conditions: 16 hrs (FIG. 5b)
# Protocol: (§1) In FIG. 5(a), equimolar amounts of purified ACK1 and H4 proteins were incubated in the presence of DZ1-067 (100 nM) and reaction subjected to immunoblotting with pY88-H4 antibodies. […] The nuclear lysates were immunoprecipitated with pY88-H4 antibodies followed by immunoblotting with H4. Lower panel is input lysate.
# [2] = system: LNCaP cells; test: Cell proliferation, trypan blue exclusion, LNCaP; assay type: cell-based, human; conditions: 36 hrs, viable cells by trypan blue exclusion, read-out: IC50, inhibition of cell growth in LNCaP cells
# Protocol: (§2) The number of viable cells was counted by trypan blue exclusion assay.
# (§3) Three distinct human prostate cancer derived cell lines, LNCaP, LAPC4 and VCaP were either DMSO treated or treated with 1, 2.5, 5, 7.5 and 10 μM of inhibitors, AIM-100, (R)-9b and (S)-9b for 36 hrs and the number of viable cells were counted by trypan blue exclusion assay.
# (§4) The ability of the ACK1 inhibitors to suppress proliferation of prostate cancer cell lines were also assessed. AIM-100, an ACK1 inhibitor, originally screened by Amgen was used as a control. […] Overall, it appears that ACK1 is needed for androgen-independent growth of prostate cancer cells.
# [3] = molecular target: ALK (Homo sapiens, UniProt Q9UM73); test: Kinase IC50 profiling, ALK; assay type: biochemical; conditions: Table 4; 10-dose; 10 μM ATP; read-out: Compound IC50 (M), ALK
# Chain of ALK (Q9UM73 19-1620): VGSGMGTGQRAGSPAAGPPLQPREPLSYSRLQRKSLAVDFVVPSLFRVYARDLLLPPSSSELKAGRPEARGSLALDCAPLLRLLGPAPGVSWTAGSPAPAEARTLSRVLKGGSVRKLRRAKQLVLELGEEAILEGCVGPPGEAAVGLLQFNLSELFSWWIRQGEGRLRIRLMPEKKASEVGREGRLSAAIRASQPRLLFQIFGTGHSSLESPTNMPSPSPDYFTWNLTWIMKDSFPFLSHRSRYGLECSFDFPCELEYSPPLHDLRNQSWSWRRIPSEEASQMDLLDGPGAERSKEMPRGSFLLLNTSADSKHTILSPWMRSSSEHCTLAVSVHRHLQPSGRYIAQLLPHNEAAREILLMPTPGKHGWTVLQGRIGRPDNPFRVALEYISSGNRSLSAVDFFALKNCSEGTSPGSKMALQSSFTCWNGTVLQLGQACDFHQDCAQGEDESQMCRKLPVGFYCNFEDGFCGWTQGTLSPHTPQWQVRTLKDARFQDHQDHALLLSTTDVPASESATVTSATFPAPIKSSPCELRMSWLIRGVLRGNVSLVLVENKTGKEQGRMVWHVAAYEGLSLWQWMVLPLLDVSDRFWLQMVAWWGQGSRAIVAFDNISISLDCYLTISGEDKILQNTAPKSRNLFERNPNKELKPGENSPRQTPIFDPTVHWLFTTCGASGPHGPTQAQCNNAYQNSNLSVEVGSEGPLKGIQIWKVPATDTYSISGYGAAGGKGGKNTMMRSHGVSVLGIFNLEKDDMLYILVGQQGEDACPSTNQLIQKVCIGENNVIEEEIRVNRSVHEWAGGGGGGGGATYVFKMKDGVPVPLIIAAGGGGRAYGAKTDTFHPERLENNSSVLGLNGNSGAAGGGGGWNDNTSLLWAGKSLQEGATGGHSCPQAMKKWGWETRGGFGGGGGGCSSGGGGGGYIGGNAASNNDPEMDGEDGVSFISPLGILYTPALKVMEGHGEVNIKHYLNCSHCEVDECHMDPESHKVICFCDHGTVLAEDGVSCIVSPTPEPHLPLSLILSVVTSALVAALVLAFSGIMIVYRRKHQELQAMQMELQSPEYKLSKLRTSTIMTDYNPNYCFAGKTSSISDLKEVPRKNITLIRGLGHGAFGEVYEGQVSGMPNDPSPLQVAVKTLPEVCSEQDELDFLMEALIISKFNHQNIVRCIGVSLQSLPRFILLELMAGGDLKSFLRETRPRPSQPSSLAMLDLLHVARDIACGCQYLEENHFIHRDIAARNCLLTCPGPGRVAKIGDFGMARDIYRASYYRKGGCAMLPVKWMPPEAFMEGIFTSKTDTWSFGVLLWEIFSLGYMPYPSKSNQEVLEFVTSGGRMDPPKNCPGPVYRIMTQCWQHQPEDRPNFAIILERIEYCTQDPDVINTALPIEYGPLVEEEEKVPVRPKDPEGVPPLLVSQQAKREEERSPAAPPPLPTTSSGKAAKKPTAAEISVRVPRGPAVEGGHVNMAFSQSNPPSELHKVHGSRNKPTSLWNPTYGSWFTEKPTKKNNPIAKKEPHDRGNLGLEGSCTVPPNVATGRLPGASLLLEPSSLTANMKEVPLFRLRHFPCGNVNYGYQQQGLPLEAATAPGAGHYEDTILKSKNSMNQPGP
# Protocol: (§5) 8 compounds were tested against […], ACK1, Src and ALK in various combinations. […] Reactions were carried out at 10 μM ATP.
# [4] = system: AR and H3K4me3 at intron 2 of AR gene; test: ChIP-qPCR of AR and H3K4me3 at intron 2 of AR gene; assay type: cell-based, human; conditions: absence of androgen (FIG. 7)
# Protocol: LNCaP cells treated with DZ1-067 and ChIP was performed using AR, H3K4me3, or IgG antibodies followed by qPCR using primers corresponding to intron 2, or control region. *p<0.05, **p<0.05, ***p<0.05, ****p<0.05.
# To determine the functional and physiological relevance of pY88-H4/WDR5 interaction, and given the interaction of AR with MLL associated complex (Grasso C S, et al. The mutational landscape of lethal castration-resistant prostate cancer. Nature. 2012; 487(7406):239-43). ChIP experiments were performed to determine AR and H3K4me3 levels at the intron 2.
# [5] = system: pY88-H4 marks in AR gene; test: ChIP-qPCR of pY88-H4 marks at the AR gene; assay type: cell-based, human; conditions: cells grown in absence of androgen (FIG. 6)
# Protocol: In FIG. 6(a), the human AR gene and two pY88-H4 binding sites are shown. […] VCaP: *p<0.05, **p<0.05; LNCaP: *p<0.05, **p<0.05
# To determine whether ACK1 modifies chromatin at AR gene locus, LNCaP and LAPC4 cells grown in the absence of androgen and were treated with DZ1-067. Chromatin immunoprecipitation (ChIP) was performed using pY88-H4 antibodies, followed by real time PCR with primers corresponding to the AR promoter, intron 2 and 3′UTR (FIG. 6a). […] These marks were also deposited at 3′UTR of the AR gene but not at the promoter region (FIG. 6b, c).
# [6] = molecular target: T1, ACK1 (Homo sapiens, UniProt Q07912); test: In vitro kinase assay, purified ACK1 and histone H4, pY88-H4 immunoblotting; assay type: biochemical; parameters: made in house; host or cells: insect cells; conditions: DZ1-067 100 nM (FIG. 5a)
# T1 sequence (Q07912 whole entry): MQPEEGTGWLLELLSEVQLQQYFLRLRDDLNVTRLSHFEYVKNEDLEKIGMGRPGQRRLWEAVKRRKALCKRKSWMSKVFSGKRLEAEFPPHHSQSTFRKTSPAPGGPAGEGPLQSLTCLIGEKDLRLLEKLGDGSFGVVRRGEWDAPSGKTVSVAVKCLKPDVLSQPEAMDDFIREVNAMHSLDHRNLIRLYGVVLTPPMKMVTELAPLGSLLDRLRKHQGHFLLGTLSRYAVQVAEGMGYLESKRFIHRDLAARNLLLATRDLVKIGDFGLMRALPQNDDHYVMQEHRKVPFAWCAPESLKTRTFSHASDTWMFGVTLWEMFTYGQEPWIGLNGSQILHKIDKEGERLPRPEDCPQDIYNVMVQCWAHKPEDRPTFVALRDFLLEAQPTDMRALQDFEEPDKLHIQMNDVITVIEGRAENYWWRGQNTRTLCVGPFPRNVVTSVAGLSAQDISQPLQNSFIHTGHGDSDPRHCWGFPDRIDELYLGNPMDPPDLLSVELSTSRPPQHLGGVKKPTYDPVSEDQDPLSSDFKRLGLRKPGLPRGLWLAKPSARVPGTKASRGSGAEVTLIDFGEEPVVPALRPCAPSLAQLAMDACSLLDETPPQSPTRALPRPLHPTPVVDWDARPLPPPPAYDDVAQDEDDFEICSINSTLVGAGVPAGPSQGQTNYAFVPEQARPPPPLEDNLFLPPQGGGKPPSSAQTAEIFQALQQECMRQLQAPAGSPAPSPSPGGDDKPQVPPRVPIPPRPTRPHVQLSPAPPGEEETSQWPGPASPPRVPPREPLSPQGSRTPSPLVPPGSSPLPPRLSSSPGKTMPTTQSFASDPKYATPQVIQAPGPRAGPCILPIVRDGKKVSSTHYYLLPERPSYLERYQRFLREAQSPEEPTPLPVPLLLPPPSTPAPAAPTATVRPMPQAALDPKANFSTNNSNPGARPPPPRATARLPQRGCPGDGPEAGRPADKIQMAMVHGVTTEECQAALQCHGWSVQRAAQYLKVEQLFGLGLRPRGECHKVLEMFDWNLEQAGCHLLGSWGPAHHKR
# Protocol: as §1
# To assess direct binding of ACK1 to H4, in vitro kinase assay was performed using purified ACK1 and H4 (New England Biolabs). Human ACK1 was expressed in insect cells and purified to homogeneity. Immunoblotting with pY88-H4 and pTyr antibodies confirmed that indeed H4 is directly Tyr-phosphorylated by ACK1 (FIG. 5a).
# [7] = system: AR; test: AR protein levels in androgen-deprived prostate cancer cells, immunoblotting; assay type: cell-based, human; conditions: immunoblotting (FIG. 2)
# Protocol: Transcriptional regulation of the AR gene itself is a paradigm that merits thorough investigation. […] Whether AR utilizes ACK1 to facilitate its transcriptional co-activator function is not known. […] Cells were also treated with ACK1-specific small molecule inhibitors, DZ1-067 or AIM-100.
# [8] = molecular target: T1, ACK1; test: 32P Hotspot assay (Reaction Biology), ACK1 IC50; assay type: biochemical
# Protocol: as §5
# [9] = system: AR; test: AR mRNA by real time PCR in androgen-deprived prostate cancer cells; assay type: cell-based, human; conditions: overnight treatment (FIG. 3a, b)
# Source text: Total RNA was isolated followed by qPCR with AR primers. VCaP, *p=0.022; LNCaP, *p=0.042, **p=0.047. […] Total RNA was isolated followed by qPCR with PSA primers.
# [10] = molecular target: c-Src (Homo sapiens, UniProt P12931); test: Kinase IC50 profiling, c-Src; assay type: biochemical; conditions: Table 3; 10-dose; 10 μM ATP; read-out: Compound IC50* (M): c-Src
# Chain of c-Src (P12931 whole entry): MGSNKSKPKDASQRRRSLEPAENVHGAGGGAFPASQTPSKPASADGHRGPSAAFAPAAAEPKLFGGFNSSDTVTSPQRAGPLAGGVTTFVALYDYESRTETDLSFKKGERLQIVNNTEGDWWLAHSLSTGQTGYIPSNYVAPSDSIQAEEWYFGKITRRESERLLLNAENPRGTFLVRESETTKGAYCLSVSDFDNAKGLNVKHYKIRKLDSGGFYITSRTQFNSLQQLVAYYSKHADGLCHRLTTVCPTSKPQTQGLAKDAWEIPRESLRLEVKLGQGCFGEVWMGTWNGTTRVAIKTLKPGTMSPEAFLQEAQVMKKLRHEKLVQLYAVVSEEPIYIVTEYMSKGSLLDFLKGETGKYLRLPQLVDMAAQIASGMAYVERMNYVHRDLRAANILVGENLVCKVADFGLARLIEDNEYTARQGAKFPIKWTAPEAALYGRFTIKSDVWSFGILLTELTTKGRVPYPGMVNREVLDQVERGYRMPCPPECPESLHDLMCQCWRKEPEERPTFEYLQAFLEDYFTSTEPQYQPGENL
# Protocol: as §5
# [11] = system: VCaP cells; test: Cell proliferation, trypan blue exclusion, VCaP; assay type: cell-based, human; conditions: 36 hrs, viable cells by trypan blue exclusion, read-out: IC50, inhibition of cell growth in VCaP cells
# Protocol: as §2, §3, §4
# [12] = molecular target: T1, ACK1; test: ACK1 ELISA: phosphorylation of AKT-derived peptide; assay type: biochemical
# [13] = system: cell line which is dependent upon ACK1; conditions: literature; read-out: IC50, growth of a cell line dependent upon ACK1; cited from earlier work
# [14] = attributed to oxidation of dithiolane ring and NMe2; literature; cited from earlier work
# [15] = system: LAPC4 cells; test: Cell growth, LAPC4; assay type: cell-based, human
# Source text: Selected compounds from the library 9 were chosen to evaluate the effects of ACK1 inhibition in LAPC4 human prostate cancer cells with inhibition of cell growth as a read out. […] Based on the findings from cell culture data, enantiomers of 9b were synthesized to understand the ACK1 inhibitory activities of individual stereoisomers. […] The synthesis of (R)-9b and (S)-9b are shown in the Scheme 4 and other examples of enantiomerically pure compounds (not reported here) were also synthesized using the protocols in the Scheme 4.
# as §3
# [16] = molecular target: T1, ACK1; conditions: literature; read-out: IC50, inhibition of ACK1 autophosphorylation in intact cells; cited from earlier work
# [17] = molecular target: T1, ACK1; test: EGF-induced ACK1 autophosphorylation (Tyr284) in LAPC4 cells, immunoblotting; assay type: cell-based; parameters: endogenous in cells; host or cells: LAPC4; conditions: pretreated with compound, 5 μM (FIG. 8(a))
# Protocol: Inhibition of: LNCaP (FIG. 8(b)); LAPC4 (FIG. 8(c)), and VCaP (FIG. 8(d)) cell growth by AIM-100, (R)-9b, and (S)-9b. Inhibition of ACK1 autophosphorylation in LAPC4 cells treated 5 μM with (R)-9b and (S)-9b (FIG. 8(a)).
# ACK1 is a tyrosine kinase that auto-phosphorylates at Tyr284, which is indicative of its kinase activation. To determine inhibitory potential of the compounds from library 9, prostate cancer derived cell line LAPC4 was treated with either EGF ligand alone or added to cells pretreated with the compounds, and equal amounts of cell lysates were subjected to immunoblotting. EGF (epidermal growth factor) ligand causes rapid activation of EGFR (epidermal growth factor receptor), which in turn lead to activation of the ACK1 kinase (FIG. 8(a), lane 2, top panel). […] Actin was used as control, which indicates equal loading of cell lysates (FIG. 8(a), lower panel).
# [18] = system: PSA; test: PSA mRNA by real time PCR in androgen-deprived prostate cancer cells; assay type: cell-based, human; conditions: overnight treatment (FIG. 3c, d)
# Source text: Total RNA was isolated followed by qPCR with AR primers. […] Total RNA was isolated followed by qPCR with PSA primers.
# [19] = metastatic CRPC; literature; cited from earlier work
# [20] = system: prostate xenograft tumor; conditions: literature; cited from earlier work
# [21] = Table 1, unit inferred, (RB) = Reaction Biology, replicates listed, read-out: IC50
# [22] = Table 4, 10-dose, 10 μM ATP, read-out: Compound IC50 (M), ACK1
# [23] = 10 μM, Table 1, replicate values listed
# [24] = 10 μM, Table 1, replicate values listed, read-out: % Inhibition at 10 μM (ELISA)
# [25] = 10 μM, Table 2, library 9, read-out: % Inhibition @ 10 μM (ELISA)
smiles,measurement,setting,value
"CN1CCN(c2ccc(Nc3ncc(Cl)c(NC[C@H]4CCCO4)n3)cc2)CC1 [DZ1-067, (R)-5-chloro-N2-(4-(4-methylpiperazin-1-yl)phenyl)-N4-((tetrahydrofuran-2-yl)methyl)pyrimidine-2,4-diamine]",endogenous pY88-phosphorylation of H4 in LNCaP cells,[1],eliminated
same,IC50,"[2]; Homo sapiens, LNCaP",1.8 µM
same,IC50,[3],1.43e-07 M
same,AR and H3K4me3 methyl marks at intron 2 (ChIP),[4],abolished
same,pY88-H4 epigenetic marks in AR gene (ChIP),[5],erased
same,H4 Tyr-phosphorylation by purified ACK1,[6],abrogated
same,AR protein levels,[7],significant downregulation the AR protein
same,IC50,[8]; [21],5.6e-08 M and 5.78e-08 M and 6.05e-08 M
same,IC50,"[8]; Table 3, 10-dose, 3-fold dilution from 10 μM, 10 μM ATP, read-out: Compound IC50* (M): ACK1",6.05e-08 M
same,IC50,[8]; [22],5.78e-08 M
same,AR mRNA levels,[9],significantly suppressed
same,IC50,[10],4.38e-07 M
same,IC50,"[11]; Homo sapiens, VCaP",2 µM
same,% Inhibition at 10 μM (ELISA),[12]; [23],91%
same,inhibition at 10 µM,[12]; [24],93%
CN(C)CCOc1ccc(-c2oc3ncnc(NCC4SCCS4)c3c2-c2ccccc2)cc1 [Compound 1c],IC50,[13],0.005 µM
same,pharmacokinetic properties,[14],poor pharmacokinetic properties
O=C(Nc1c(F)cccc1Cl)c1cnc(Nc2ccc(N3CCNCC3)cc2)nc1NCC1CCCO1 (centres unmarked) [Compound 9m],"cellular potency, ACK1 inhibition in LAPC4 cells with cell growth as read out",[15],did not display the expected cellular potency
same,inhibition at 10 µM,"[12]; read-out: % Inhibition @ 10 μM (ELISA), 10 μM, Table 2, library 9",89.5 ± 2.1%
COC(C)(C)CCn1nc(Nc2c(C)cccc2C)c2cnc(Nc3ccccc3)nc21 [Compound 2],IC50,[16],0.02 µM
COc1cc(N2CCC(N3CCN(C)CC3)CC2)ccc1Nc1ncc(Cl)c(Nc2ccccc2S(=O)(=O)C(C)C)n1 [TAE684],ACK1 activation (autophosphorylation) in EGF-treated LAPC4 cells,[17],significant reduction in ACK1 activation
"CN1CCN(c2ccc(Nc3ncc(Cl)c(NC[C@@H]4CCCO4)n3)cc2)CC1 [DZ1-077, (S)-5-chloro-N2-(4-(4-methylpiperazin-1-yl)phenyl)-N4-((tetrahydrofuran-2-yl)methyl)pyrimidine-2,4-diamine]",IC50,"[2]; Homo sapiens, LNCaP",1.8 µM
same,IC50,[3],2.96e-07 M
same,IC50,[8]; [21],8.05e-08 M and 8.33e-08 M
same,IC50,[8]; [22],8.33e-08 M
same,IC50,"[11]; Homo sapiens, VCaP",4 µM
same,% Inhibition at 10 μM (ELISA),[12]; [23],94%
same,inhibition at 10 µM,[12]; [24],93%
CNC(=O)c1ccc(N2C(=S)N(c3ccc(C#N)c(C(F)(F)F)c3)C(=O)C2(C)C)cc1F [Enzalutamide],endogenous pY88-phosphorylation of H4 in LNCaP cells,[1],unaffected
same,PSA mRNA levels,[18],significantly suppressed PSA mRNA levels
same,AR mRNA levels,[9],no significant change
same,CRPC patients in whom effective,[19],12 out of 30
same,overall survival advantage,[19],4-6 months
O=C(Nc1c(F)cccc1Cl)c1cnc(Nc2ccc(N3CCOCC3)cc2)nc1NCC1CCCO1 (centres unmarked) [Compound 9n],"cellular potency, ACK1 inhibition in LAPC4 cells with cell growth as read out",[15],did not display the expected cellular potency
same,IC50,"[8]; Table 2, read-out: IC50 (32P Hotspot assay)",4.77e-08 M
same,inhibition at 10 µM,[12]; [25],82 ± 7.7%
c1ccc(-c2oc3ncnc(NC[C@@H]4CCCO4)c3c2-c2ccccc2)cc1 [AIM-100],ACK1 activation (autophosphorylation) in EGF-treated LAPC4 cells,[17],significant reduction in ACK1 activation
same,IC50,[2],7 µM
same,castration and radioresistant prostate xenograft tumor growth,[20],inhibits
same,AR protein levels,[7],concomitant decrease in AR protein levels
same,IC50,[11],4 µM
CN1CCN(c2ccc(Nc3ncc(Cl)c(NCC4CCCO4)n3)cc2)CC1 (centres unmarked) [Compound 9b],"cellular potency, ACK1 inhibition in LAPC4 cells with cell growth as read out",[15],promising ACK1 inhibitory activities in cellular assays
same,inhibition at 10 µM,[12]; [25],90.5 ± 0.7%
CCCS(=O)(=O)Nc1ccc(F)c(C(=O)c2c[nH]c3ncc(-c4ccc(Cl)cc4)cc23)c1F [PLX4032],AR protein levels,[7],little effect on AR expression
same,AR mRNA levels,[9],no significant change
CC(O)(CS(=O)(=O)c1ccc(F)cc1)C(=O)Nc1ccc(C#N)c(C(F)(F)F)c1 (centres unmarked) [Casodex],PSA mRNA levels,[18],significantly suppressed PSA mRNA levels
same,AR mRNA levels,[9],no significant change
C[C@]12CCC(=O)C[C@@H]1CC[C@@H]1[C@@H]2CC[C@]2(C)[C@@H](O)CC[C@@H]12 [DHT],endogenous pY88-phosphorylation of H4 in LNCaP cells,[1],unaffected
same,AR protein levels,[7],increased AR levels
same,AR mRNA levels,[9],no significant change
"Brc1cnc(Nc2ccc(N3CCOCC3)cc2)nc1NCC1CCCO1.Cl (centres unmarked) [DZ1-091, 5-bromo-N2-(4-morpholinophenyl)-N4-((tetrahydrofuran-2-yl)methyl)pyrimidine-2,4-diamine]",IC50,[8]; [21],1.06e-07 M
same,% Inhibition at 10 μM (ELISA),[12]; [23],90%
same,inhibition at 10 µM,[12]; [24],88%
